In US8563559B2 (Rigel Pharmaceuticals, Inc., priority 2006, dated 2013) one finds IC50 data, which are given here for 14 compounds.

The structures appear in SMILES notation.

One assay addresses T1, Axl (Homo sapiens, UniProt P30530).
T1 construct: endogenous in cells; host or cells: HeLa
T1 sequence (P30530 26-894): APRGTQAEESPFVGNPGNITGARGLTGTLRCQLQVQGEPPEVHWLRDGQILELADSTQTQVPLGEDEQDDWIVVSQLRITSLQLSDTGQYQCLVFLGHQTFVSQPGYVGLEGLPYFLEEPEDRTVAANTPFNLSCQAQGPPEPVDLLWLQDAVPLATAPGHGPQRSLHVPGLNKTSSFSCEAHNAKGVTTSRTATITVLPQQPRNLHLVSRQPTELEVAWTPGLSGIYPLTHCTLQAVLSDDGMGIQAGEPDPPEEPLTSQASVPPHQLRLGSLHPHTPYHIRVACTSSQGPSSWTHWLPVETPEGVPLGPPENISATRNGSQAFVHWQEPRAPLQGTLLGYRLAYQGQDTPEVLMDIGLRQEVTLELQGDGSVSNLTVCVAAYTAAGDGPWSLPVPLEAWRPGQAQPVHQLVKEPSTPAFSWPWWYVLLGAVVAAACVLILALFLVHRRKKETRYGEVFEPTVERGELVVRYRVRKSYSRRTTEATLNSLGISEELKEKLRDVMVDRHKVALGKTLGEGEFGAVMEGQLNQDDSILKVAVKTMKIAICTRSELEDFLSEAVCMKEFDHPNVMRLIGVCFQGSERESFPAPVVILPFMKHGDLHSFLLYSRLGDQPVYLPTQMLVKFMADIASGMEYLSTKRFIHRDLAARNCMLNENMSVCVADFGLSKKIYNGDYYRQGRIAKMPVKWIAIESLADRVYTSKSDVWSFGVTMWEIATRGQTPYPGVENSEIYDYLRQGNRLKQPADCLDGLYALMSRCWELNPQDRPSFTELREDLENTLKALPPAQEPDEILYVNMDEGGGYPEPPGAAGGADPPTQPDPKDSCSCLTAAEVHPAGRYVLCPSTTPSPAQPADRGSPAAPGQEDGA
The experiment in a line: Phospho-AKT in-cell Western assay (inhibition of Axl activity). Type of assay: cell-based. The note with it: Table 1, formula (Ia); Hela cells, Axl antibody cross-linking stimulation, phospho-Akt chemiluminescence normalized to relative cell number. The method, then: The compounds of the invention were tested in the following assay for their ability to inhibit Axl activity.
Phospho-AKT in-Cell Western Assay
• Cell culture plate: 96 well assay plate (Corning 3610), white, clear bottom, tissue-culture treated. • Cells: Hela cells. • Starvation medium: For Axl stimulation: 0.5% FCS (fetal calf serum) in DMEM, plus Axl/Fc (extracellular domain of AXL fused to immunoglobulin Fc region) (R&D, 154-AL) 500 ng/mL. • For EGF (epidermal growth factor) stimulation: 0.5% FCS in DMEM (Dulbecco's modified Eagles medium). • Poly-L-Lysine 0.01% solution (the working solution): 10 μg/ml, dilute In PBS (phosphate buffered saline). • Axl antibody cross-linking: • 1st: Mouse anti-Axl (R&D, MAB154). • 2nd: Biotin-SP-conjugated AffiniPure goat anti-mouse IgG (H+L) (Jackson ImmunoResearch #115-065-003). • Fixing buffer: 4% formaldehyde in PBS. • Wash buffer: 0.1% TritonX-100 in PBS. • Quenching buffer: 3% H2O2, 0.1% Azide in wash buffer, Azide and hydrogen peroxide 1(H2O2) are added fresh. • Blocking buffer: 5% BSA in TBST (tris buffered saline plus 0.1% Tween 20). • Primary antibody: Rabbit anti-human Phospho-Akt antibody (Cell Signaling 9271): 1×250 diluted in blocking buffer. • Secondary antibody: HRP (horse radish peroxidase)-conjugated Goat anti-Rabbit secondary, stock solution: Jackson ImmunoResearch (Goat anti-Rabbit HRP, #111-035-144) 1:1 diluted in glycerol, store at −20° C. The working solution: 1×2000 dilution of stock in blocking buffer. • Chemiluminescent working solution (Pierce, 37030): SuperSignal ELISA (enzyme linked immunosorbant assay) Pico Chemiluminescent substrate. • Crystal Violet solution: Stock: 2.5% Crystal violet in methanol, filtered and kept at ambient temperature. The working solution: dilute the stock 1:20 with PBS immediately before use. • 10% SDS: working solution: 5% SDS (sodium dodecylsulfate), diluted in PBS Methods: Day 1:
A 96 well TC (tissue culture treated) plate was coated with 10 μg/mL poly-L-Lysine at 37° C. for 30 min, washed twice with PBS, and air-dried for 5 minutes before cells were added. Hela cells were seeded at 10,000 cells/well and the cells were starved in 100 μL starvation medium containing Axl/Fc for 24 hrs.
The cells were pre-treated with test compounds by adding 100 μL of 2× test compound to the starvation medium on the cells. The cells were incubated at 37° C. for 1 hr before stimulation.
The cells were stimulated by Axl-antibody cross-linking as follows: A 5×1st/2nd Axl antibody mixture was made (37.5 μg/mL 1st/100 μg/mL 2nd) in starvation medium and nutated at 4° C. with thorough mixing for 1-2 hours for clustering. The resulting mix was warmed to 37° C. 50 μL of 5×Axl 1st/2nd of antibody cluster was added to the cells and the cells were incubated at 37° C. for 5 min.
After 5 minutes stimulation, the plate was flicked to remove medium and the plate was tapped onto paper towels. Formaldehyde (4.0% in PBS, 100 μL) was added to fix the cells and the cells were incubated at ambient temperature for 20 min without shaking.
The cells were washed with a plate washer buffer to remove the formaldehyde solution. The plate was flicked to removed excess wash buffer and tapped onto paper towels. Quenching buffer (100 μL) was added to each well and the cells were incubated at ambient temperature for 20 minutes without shaking.
The cells were washed with a plate washer buffer to remove the quenching buffer. Blocking buffer (100 μL) was added and the cells were incubated at ambient temperature for at least an hour with gentle shaking.
The cells were washed with a plate washer buffer and diluted primary antibody (50 μL) was added to each well (blocking buffer was added to the negative control wells instead). The plates were incubated overnight at 4° C. with gentle shaking.
The wash buffer was removed, diluted secondary antibody (100 μL) was added, and the cells were incubated at ambient temperature for 1 hour with gentle shaking. […]
The term IC50 denotes the concentration at which inhibition is half-maximal. On to `CNC(=O)[C@H]1C[C@H]2C[C@H](C2(C)C)[C@@]1(C)Nc1nc(Nc2ccc(OCC(C)(C)N3CCCC3)cc2)ncc1Cl` [Compound 8, (1R,2R,3S,5R)-2-(5-chloro-2-(4-(2-methyl-2-(pyrrolidin-1-yl)propoxy)phenylamino)pyrimidin-4-ylamino)-N,2,6,6-tetramethylbicyclo[3.1.1]heptane-3-carboxamide], for which the half-maximal inhibitory concentration (IC50) was less than 1 µM.
On to `CNC(=O)[C@H]1C[C@H]2C[C@H](C2(C)C)[C@@]1(C)Nc1nc(Nc2ccc(N3CCN(CCO)CC3)cc2)ncc1C` [Compound 42, (1R,2R,3S,5R)-2-(5-methyl-2-(4-(4-(2-hydroxyethyl)piperazin-1-yl)phenylamino)pyrimidin-4-ylamino)-N,2,6,6-tetramethylbicyclo[3.1.1]heptane-3-carboxamide], for which the IC50 was in the range of 1 to 10 µM.
Still for that read-out and setting: for `CNC(=O)[C@H]1C[C@H]2C[C@H](C2(C)C)[C@@]1(C)Nc1nc(Nc2ccc(N3CCC(F)(F)CC3)c(F)c2)ncc1F` [Compound 35, (1R,2R,3S,5R)-2-(5-fluoro-2-(3-fluoro-4-(4,4-difluoropiperidin-1-yl)phenylamino)pyrimidin-4-ylamino)-N,2,6,6-tetramethylbicyclo[3.1.1]heptane-3-carboxamide] the value was greater than 20 µM; for `CNC(=O)[C@H]1C[C@H]2C[C@H](C2(C)C)[C@@]1(C)Nc1nc(Nc2ccc(N3CCN(C)CC3)c(F)c2)ncc1Cl` [Compound 4, (1R,2R,3S,5R)-2-(5-chloro-2-(3-fluoro-4-(4-methylpiperazin-1-yl)phenylamino)pyrimidin-4-ylamino)-N,2,6,6-tetramethylbicyclo[3.1.1]heptane-3-carboxamide], less than 1 µM.
On the same count and under the same terms, in the case of `CNC(=O)[C@H]1C[C@H]2C[C@H](C2(C)C)[C@@]1(C)Nc1nc(Nc2ccc(OCCN3CCCC3)c(F)c2)ncc1Cl` [Compound 3, (1R,2R,3S,5R)-2-(5-chloro-2-(3-fluoro-4-(2-(pyrrolidin-1-yl)ethoxy)phenylamino)pyrimidin-4-ylamino)-N,2,6,6-tetramethylbicyclo[3.1.1]heptane-3-carboxamide] it was less than 1 µM.
Still for that read-out and setting: for `CNC(=O)[C@H]1C[C@H]2C[C@H](C2(C)C)[C@@]1(C)Nc1nc(Nc2ccc(N3CCC(F)(F)CC3)c(Cl)c2)ncc1F` [Compound 34, (1R,2R,3S,5R)-2-(5-fluoro-2-(3-chloro-4-(4,4-difluoropipendin-1-yl)phenylamino)pyrimidin-4-ylamino)-N,2,6,6-tetramethylbicyclo[3.1.1]heptane-3-carboxamide] the value was greater than 20 µM.
Compound `CNC(=O)[C@H]1C[C@H]2C[C@H](C2(C)C)[C@@]1(C)Nc1nc(Nc2ccc(OCCN3CCCC3)cc2)ncc1Cl` [Compound 1, (1R,2R,3S,5R)-2-(5-chloro-2-(4-(2-(pyrrolidin-1-yl)ethoxy)phenylamino)pyrimidin-4-ylamino)-N,2,6,6-tetramethylbicyclo[3.1.1]heptane-3-carboxamide] registered a half-maximal inhibitory concentration (IC50) of less than 1 µM.
The same measure, in the same setting: for `CNC(=O)[C@H]1C[C@H]2C[C@H](C2(C)C)[C@@]1(C)Nc1nc(Nc2ccc(N3CCN(S(C)(=O)=O)CC3)c(C(F)(F)F)c2)ncc1F` [Compound 37, (1R,2R,3S,5R)-2-(5-fluoro-2-(3-trifluoromethyl-4-(4-methylsulfonylpiperazin-1-yl)phenylamino)pyrimidin-4-ylamino)-N,2,6,6-tetramethylbicyclo[3.1.1]heptane-3-carboxamide] the value was greater than 20 µM.
As for `CNC(=O)[C@H]1C[C@H]2C[C@H](C2(C)C)[C@@]1(C)Nc1nc(Nc2ccc(N3CCN(C(C)=O)CC3)c(C(F)(F)F)c2)ncc1F` [Compound 39, (1R,2R,3S,5R)-2-(5-fluoro-2-(3-trifluoromethyl-4-(4-acetylpiperazin-1-yl)phenylamino)pyrimidin-4-ylamino)-N,2,6,6-tetramethylbicyclo[3.1.1]heptane-3-carboxamide], the 50% inhibitory concentration (IC50) is greater than 20 µM.
The same measure, in the same setting: in the case of `CNC(=O)[C@H]1C[C@H]2C[C@H](C2(C)C)[C@@]1(C)Nc1nc(Nc2ccc(OCCNC3CCCC3)cc2)ncc1Cl` [Compound 9, (1R,2R,3S,5R)-2-(5-chloro-2-(4-(2-(cyclopentylamino)ethoxy)phenylamino)pyrimidin-4-ylamino)-N,2,6,6-tetramethylbicyclo[3.1.1]heptane-3-carboxamide] it was less than 1 µM.
Compound `CNC(=O)[C@H]1C[C@H]2C[C@H](C2(C)C)[C@@]1(C)Nc1nc(Nc2ccc(N3CCC(N4CCC(C)CC4)CC3)c(F)c2)ncc1F` [Compound 55, (1R,2R,3S,5R)-2-(5-fluoro-2-(3-fluoro-4-(4-(4-methylpiperidin-1-yl)piperidin-1-yl)phenylamino)pyrimidin-4-ylamino)-N,2,6,6-tetramethylbicyclo[3.1.1]heptane-3-carboxamide] showed an IC50 of less than 1 µM.
On the same count and under the same terms, for `CC(C)NC(=O)[C@H]1C[C@H]2C[C@H](C2(C)C)[C@@]1(C)Nc1nc(Nc2ccc(OCCN3CCCC3)cc2)ncc1Cl` [Compound 63, (1R,2R,3S,5R)-2-(5-chloro-2-(4-(2-(pyrrolidin-1-yl)ethoxy)phenylamino)pyrimidin-4-ylamino)-N-(1-methylethyl)-2,6,6-trimethylbicyclo[3.1.1]heptane-3-carboxamide] the value was less than 1 µM.

Still in this assay, the particulars now being: Table 2, formula (Ib); Hela cells, Axl antibody cross-linking stimulation, phospho-Akt chemiluminescence normalized to relative cell number.
Regarding `CNC(=O)[C@@H]1C[C@@H]2C[C@@H](C2(C)C)[C@]1(C)Nc1nc(Nc2ccc(N3CCOCC3)cc2)ncc1Cl` [Compound 21, (1S,2S,3R,5S)-2-(5-chloro-2-(4-morpholinophenylamino)pyrimidin-4-ylamino)-N,2,6,6-tetramethylbicyclo[3.1.1]heptane-3-carboxamide], the half-inhibitory concentration (IC50) is 1 to 10 µM.

Still in this assay, the particulars now being: Table 3, formula (Ic); Hela cells, Axl antibody cross-linking stimulation, phospho-Akt chemiluminescence normalized to relative cell number.
Regarding `CNC(=O)[C@H]1C[C@H]2C[C@H](C2(C)C)[C@@]1(C)Nc1nc(Nc2ccc3c(c2)OCCN3CCN(C)C)ncc1F` [Compound 48, (1R,2R,3S,5R)-2-(5-fluoro-2-((3,4-dihydro-4-(2-(dimethylamino)ethyl)-2H-benzo[b][1,4]oxazin-7-yl)amino)pyrimidin-4-ylamino)-N,2,6,6-tetramethylbicyclo[3.1.1]heptane-3-carboxamide], the 50% inhibitory concentration (IC50) lay in the range of 1 to 10 µM.
